Reference: PubChem BioAssay (NCI)
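48-hour exposure; five concentrations; linearly interpolated endpoints. Here, GI50 denotes the concentration required for 50% inhibition of growth. TGI marks complete inhibition of growth.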

Key:
Experiment in all cases: NCI tumour cell line growth inhibition, 48 h
PC-3 prostate = system: PC-3 prostate
786-0 renal = system: 786-0 renal
CCRF-CEM leukemia = system: CCRF-CEM leukemia
NCI-H226 lung = system: NCI-H226 lung
K-562 leukemia = system: K-562 leukemia
NCI-H460 lung = system: NCI-H460 lung
MDA-MB-231 breast = system: MDA-MB-231 breast
CAKI-1 renal = system: CAKI-1 renal
DU-145 prostate = system: DU-145 prostate
HOP-62 NSCLC = system: HOP-62 NSCLC
LOX IMVI melanoma = system: LOX IMVI melanoma
SK-OV-3 ovarian = system: SK-OV-3 ovarian
KM12 colon = system: KM12 colon
HCT-116 colon = system: HCT-116 colon
A498 renal = system: A498 renal
MDA-MB-468 breast = system: MDA-MB-468 breast
SF-268 CNS = system: SF-268 CNS
RXF 393 renal = system: RXF 393 renal
NCI-H23 lung = system: NCI-H23 lung
SF-295 CNS = system: SF-295 CNS
SK-MEL-2 melanoma = system: SK-MEL-2 melanoma
SK-MEL-28 melanoma = system: SK-MEL-28 melanoma
UACC-62 melanoma = system: UACC-62 melanoma
EKVX NSCLC = system: EKVX NSCLC
BT-549 breast = system: BT-549 breast
SNB-75 CNS = system: SNB-75 CNS
T-47D breast = system: T-47D breast
HCT-15 colon = system: HCT-15 colon
U251 CNS = system: U251 CNS
SW-620 colon = system: SW-620 colon
NCI-H522 lung = system: NCI-H522 lung
MCF7 breast = system: MCF7 breast
NCI/ADR-RES ovarian = system: NCI/ADR-RES ovarian
OVCAR-8 ovarian = system: OVCAR-8 ovarian
MOLT-4 leukemia = system: MOLT-4 leukemia
SK-MEL-5 melanoma = system: SK-MEL-5 melanoma
SN12C renal = system: SN12C renal
OVCAR-3 ovarian = system: OVCAR-3 ovarian
TK-10 renal = system: TK-10 renal
M14 melanoma = system: M14 melanoma
HT29 colon = system: HT29 colon
MDA-MB-435 = system: MDA-MB-435
HOP-92 NSCLC = system: HOP-92 NSCLC
OVCAR-4 ovarian = system: OVCAR-4 ovarian
HL-60(TB) leukemia = system: HL-60(TB) leukemia
MALME-3M melanoma = system: MALME-3M melanoma
OVCAR-5 ovarian = system: OVCAR-5 ovarian
HS 578T breast = system: HS 578T breast
UACC-257 melanoma = system: UACC-257 melanoma
HCC-2998 colon = system: HCC-2998 colon
SR leukemia = system: SR leukemia
UO-31 renal = system: UO-31 renal
SNB-19 CNS = system: SNB-19 CNS
RPMI-8226 leukemia = system: RPMI-8226 leukemia
ACHN renal = system: ACHN renal
IGROV1 ovarian = system: IGROV1 ovarian
SF-539 CNS = system: SF-539 CNS
COLO 205 colon = system: COLO 205 colon
A549 NSCLC = system: A549 NSCLC

Question: `COc1ccc(Cc2nn(CC(=O)N/N=C/c3ccc(Br)cc3)c(=O)c3c(C)noc23)cc1` was tested. Which GI50 (PC-3 prostate) did it give?
Answer: 10.4 µM

Question: What about the TGI (PC-3 prostate) of the same molecule?
Answer: > 100 µM

Question: And the GI50 (786-0 renal)?
Answer: 1.48 µM

Question: What about the TGI (786-0 renal) of the same molecule?
Answer: 6.94 µM

Question: And the GI50 (CCRF-CEM leukemia)?
Answer: 7.87 µM

Question: What about the TGI (CCRF-CEM leukemia) of the same molecule?
Answer: > 100 µM

Question: And the GI50 (NCI-H226 lung)?
Answer: 2.52 µM

Question: What about the TGI (NCI-H226 lung) of the same molecule?
Answer: 13.4 µM

Question: And the GI50 (K-562 leukemia)?
Answer: 14.8 µM

Question: What about the TGI (K-562 leukemia) of the same molecule?
Answer: > 100 µM

Question: And the GI50 (NCI-H460 lung)?
Answer: 1.56 µM

Question: And the TGI (NCI-H460 lung)?
Answer: 16.4 µM

Question: What about the GI50 (MDA-MB-231 breast) of the same molecule?
Answer: 5.73 µM

Question: What about the TGI (MDA-MB-231 breast) of the same molecule?
Answer: 25.8 µM

Question: What about the GI50 (CAKI-1 renal) of the same molecule?
Answer: 5.21 µM

Question: What about the TGI (CAKI-1 renal) of the same molecule?
Answer: 19.1 µM

Question: And the GI50 (DU-145 prostate)?
Answer: 16.1 µM

Question: What about the TGI (DU-145 prostate) of the same molecule?
Answer: > 100 µM

Question: And the GI50 (HOP-62 NSCLC)?
Answer: 10.6 µM

Question: And the TGI (HOP-62 NSCLC)?
Answer: 26.4 µM

Question: And the GI50 (LOX IMVI melanoma)?
Answer: 3.54 µM

Question: And the TGI (LOX IMVI melanoma)?
Answer: 52.8 µM

Question: What about the GI50 (SK-OV-3 ovarian) of the same molecule?
Answer: 5.55 µM

Question: And the TGI (SK-OV-3 ovarian)?
Answer: 20.1 µM

Question: And the GI50 (KM12 colon)?
Answer: > 100 µM

Question: What about the TGI (KM12 colon) of the same molecule?
Answer: > 100 µM

Question: What about the GI50 (HCT-116 colon) of the same molecule?
Answer: 0.81 µM

Question: What about the TGI (HCT-116 colon) of the same molecule?
Answer: 10.3 µM

Question: What about the GI50 (A498 renal) of the same molecule?
Answer: 3.01 µM

Question: What about the TGI (A498 renal) of the same molecule?
Answer: 8.8 µM

Question: And the GI50 (MDA-MB-468 breast)?
Answer: 7.58 µM

Question: What about the TGI (MDA-MB-468 breast) of the same molecule?
Answer: 27.4 µM

Question: What about the GI50 (SF-268 CNS) of the same molecule?
Answer: 14.8 µM

Question: What about the TGI (SF-268 CNS) of the same molecule?
Answer: 52.6 µM

Question: And the GI50 (RXF 393 renal)?
Answer: 2.75 µM

Question: And the TGI (RXF 393 renal)?
Answer: 11.4 µM

Question: And the GI50 (NCI-H23 lung)?
Answer: 7.06 µM

Question: What about the TGI (NCI-H23 lung) of the same molecule?
Answer: 22.8 µM

Question: What about the GI50 (SF-295 CNS) of the same molecule?
Answer: 10.3 µM

Question: And the TGI (SF-295 CNS)?
Answer: 23.4 µM

Question: What about the GI50 (SK-MEL-2 melanoma) of the same molecule?
Answer: 16.4 µM

Question: What about the TGI (SK-MEL-2 melanoma) of the same molecule?
Answer: 32.1 µM

Question: What about the GI50 (SK-MEL-28 melanoma) of the same molecule?
Answer: 36.9 µM

Question: What about the TGI (SK-MEL-28 melanoma) of the same molecule?
Answer: > 100 µM

Question: And the GI50 (UACC-62 melanoma)?
Answer: 14.1 µM

Question: What about the TGI (UACC-62 melanoma) of the same molecule?
Answer: > 100 µM

Question: What about the GI50 (EKVX NSCLC) of the same molecule?
Answer: 14.5 µM

Question: And the TGI (EKVX NSCLC)?
Answer: 83.1 µM

Question: And the GI50 (BT-549 breast)?
Answer: 18.2 µM

Question: And the TGI (BT-549 breast)?
Answer: 58 µM

Question: And the GI50 (SNB-75 CNS)?
Answer: 0.287 µM

Question: And the TGI (SNB-75 CNS)?
Answer: 1.41 µM

Question: What about the GI50 (T-47D breast) of the same molecule?
Answer: 0.97 µM

Question: And the TGI (T-47D breast)?
Answer: 9.48 µM

Question: What about the GI50 (HCT-15 colon) of the same molecule?
Answer: 12.3 µM

Question: And the TGI (HCT-15 colon)?
Answer: > 100 µM

Question: And the GI50 (U251 CNS)?
Answer: 2.03 µM

Question: And the TGI (U251 CNS)?
Answer: 13.4 µM

Question: What about the GI50 (SW-620 colon) of the same molecule?
Answer: 3.07 µM

Question: What about the TGI (SW-620 colon) of the same molecule?
Answer: > 100 µM

Question: And the GI50 (NCI-H522 lung)?
Answer: 8.77 µM

Question: What about the TGI (NCI-H522 lung) of the same molecule?
Answer: 41.6 µM

Question: And the GI50 (MCF7 breast)?
Answer: 3.44 µM

Question: And the TGI (MCF7 breast)?
Answer: > 100 µM

Question: And the GI50 (NCI/ADR-RES ovarian)?
Answer: 4.6 µM

Question: And the TGI (NCI/ADR-RES ovarian)?
Answer: > 100 µM

Question: And the GI50 (OVCAR-8 ovarian)?
Answer: 17.4 µM

Question: What about the TGI (OVCAR-8 ovarian) of the same molecule?
Answer: > 100 µM

Question: And the GI50 (MOLT-4 leukemia)?
Answer: 7.82 µM

Question: What about the TGI (MOLT-4 leukemia) of the same molecule?
Answer: > 100 µM

Question: And the GI50 (SK-MEL-5 melanoma)?
Answer: > 100 µM

Question: And the TGI (SK-MEL-5 melanoma)?
Answer: > 100 µM

Question: And the GI50 (SN12C renal)?
Answer: 1.63 µM

Question: What about the TGI (SN12C renal) of the same molecule?
Answer: 11.5 µM

Question: And the GI50 (OVCAR-3 ovarian)?
Answer: 2.27 µM

Question: What about the TGI (OVCAR-3 ovarian) of the same molecule?
Answer: 10.9 µM

Question: And the GI50 (TK-10 renal)?
Answer: 10.1 µM

Question: What about the TGI (TK-10 renal) of the same molecule?
Answer: 23.9 µM

Question: What about the GI50 (M14 melanoma) of the same molecule?
Answer: 18.5 µM

Question: And the TGI (M14 melanoma)?
Answer: > 100 µM

Question: And the GI50 (HT29 colon)?
Answer: 5.05 µM

Question: What about the TGI (HT29 colon) of the same molecule?
Answer: > 100 µM

Question: And the GI50 (MDA-MB-435)?
Answer: 30.5 µM

Question: And the TGI (MDA-MB-435)?
Answer: > 100 µM

Question: And the GI50 (HOP-92 NSCLC)?
Answer: 4.98 µM

Question: What about the TGI (HOP-92 NSCLC) of the same molecule?
Answer: 21.2 µM

Question: And the GI50 (OVCAR-4 ovarian)?
Answer: 0.511 µM

Question: And the TGI (OVCAR-4 ovarian)?
Answer: 2.12 µM

Question: What about the GI50 (HL-60(TB) leukemia) of the same molecule?
Answer: > 100 µM

Question: What about the TGI (HL-60(TB) leukemia) of the same molecule?
Answer: > 100 µM

Question: And the GI50 (MALME-3M melanoma)?
Answer: 5.48 µM

Question: What about the TGI (MALME-3M melanoma) of the same molecule?
Answer: 29.1 µM

Question: And the GI50 (OVCAR-5 ovarian)?
Answer: 16.8 µM

Question: And the TGI (OVCAR-5 ovarian)?
Answer: > 100 µM

Question: And the GI50 (HS 578T breast)?
Answer: 3.61 µM

Question: What about the TGI (HS 578T breast) of the same molecule?
Answer: 61.2 µM

Question: And the GI50 (UACC-257 melanoma)?
Answer: > 100 µM

Question: What about the TGI (UACC-257 melanoma) of the same molecule?
Answer: > 100 µM

Question: What about the GI50 (HCC-2998 colon) of the same molecule?
Answer: 34.5 µM

Question: And the TGI (HCC-2998 colon)?
Answer: > 100 µM

Question: And the GI50 (SR leukemia)?
Answer: 14.6 µM

Question: What about the TGI (SR leukemia) of the same molecule?
Answer: > 100 µM

Question: What about the GI50 (UO-31 renal) of the same molecule?
Answer: 2.98 µM

Question: What about the TGI (UO-31 renal) of the same molecule?
Answer: 15.3 µM

Question: What about the GI50 (SNB-19 CNS) of the same molecule?
Answer: 14.6 µM

Question: And the TGI (SNB-19 CNS)?
Answer: 33.1 µM

Question: And the GI50 (RPMI-8226 leukemia)?
Answer: 69.9 µM

Question: What about the TGI (RPMI-8226 leukemia) of the same molecule?
Answer: > 100 µM

Question: What about the GI50 (ACHN renal) of the same molecule?
Answer: 2.65 µM

Question: What about the TGI (ACHN renal) of the same molecule?
Answer: 11.2 µM

Question: What about the GI50 (IGROV1 ovarian) of the same molecule?
Answer: 12.4 µM

Question: What about the TGI (IGROV1 ovarian) of the same molecule?
Answer: 32.3 µM

Question: What about the GI50 (SF-539 CNS) of the same molecule?
Answer: 11.9 µM

Question: What about the TGI (SF-539 CNS) of the same molecule?
Answer: 25.4 µM

Question: And the GI50 (COLO 205 colon)?
Answer: > 100 µM

Question: What about the TGI (COLO 205 colon) of the same molecule?
Answer: > 100 µM

Question: And the GI50 (A549 NSCLC)?
Answer: 1.49 µM

Question: What about the TGI (A549 NSCLC) of the same molecule?
Answer: > 100 µM
